Measurements reported in patent US20240018161A1, “MODULATORS OF CYSTIC FIBROSIS TRANSMEMBRANE CONDUCTANCE REGULATOR” (VERTEX PHARMACEUTICALS INCORPORATED, priority 2020, published 2024).

Columns and labels:
[1] = from 3-[[4-(2,6-dimethylphenyl)-6-[(1-methyl-3,4,4a,5,6,7,8,8a-octahydro-2H-1,6-naphthyridin-8-yl)oxy]pyrimidin-2-yl]sulfamoyl]benzoic acid (Dihydrochloride salt); amide bond; 13-membered ring; HATU/DIEA; 25.0 °C
[2] = target: T1, CFTR-mediated chloride transport in human intestinal epithelial enteroid cells (Homo sapiens, UniProt P13569); assay: Membrane potential dye, Enteroid Assay A; format: cell-based; settings: for EC50: read-out: Ent. A EC50
T1 sequence (P13569 with tags, fused parts or gaps DEL508-508): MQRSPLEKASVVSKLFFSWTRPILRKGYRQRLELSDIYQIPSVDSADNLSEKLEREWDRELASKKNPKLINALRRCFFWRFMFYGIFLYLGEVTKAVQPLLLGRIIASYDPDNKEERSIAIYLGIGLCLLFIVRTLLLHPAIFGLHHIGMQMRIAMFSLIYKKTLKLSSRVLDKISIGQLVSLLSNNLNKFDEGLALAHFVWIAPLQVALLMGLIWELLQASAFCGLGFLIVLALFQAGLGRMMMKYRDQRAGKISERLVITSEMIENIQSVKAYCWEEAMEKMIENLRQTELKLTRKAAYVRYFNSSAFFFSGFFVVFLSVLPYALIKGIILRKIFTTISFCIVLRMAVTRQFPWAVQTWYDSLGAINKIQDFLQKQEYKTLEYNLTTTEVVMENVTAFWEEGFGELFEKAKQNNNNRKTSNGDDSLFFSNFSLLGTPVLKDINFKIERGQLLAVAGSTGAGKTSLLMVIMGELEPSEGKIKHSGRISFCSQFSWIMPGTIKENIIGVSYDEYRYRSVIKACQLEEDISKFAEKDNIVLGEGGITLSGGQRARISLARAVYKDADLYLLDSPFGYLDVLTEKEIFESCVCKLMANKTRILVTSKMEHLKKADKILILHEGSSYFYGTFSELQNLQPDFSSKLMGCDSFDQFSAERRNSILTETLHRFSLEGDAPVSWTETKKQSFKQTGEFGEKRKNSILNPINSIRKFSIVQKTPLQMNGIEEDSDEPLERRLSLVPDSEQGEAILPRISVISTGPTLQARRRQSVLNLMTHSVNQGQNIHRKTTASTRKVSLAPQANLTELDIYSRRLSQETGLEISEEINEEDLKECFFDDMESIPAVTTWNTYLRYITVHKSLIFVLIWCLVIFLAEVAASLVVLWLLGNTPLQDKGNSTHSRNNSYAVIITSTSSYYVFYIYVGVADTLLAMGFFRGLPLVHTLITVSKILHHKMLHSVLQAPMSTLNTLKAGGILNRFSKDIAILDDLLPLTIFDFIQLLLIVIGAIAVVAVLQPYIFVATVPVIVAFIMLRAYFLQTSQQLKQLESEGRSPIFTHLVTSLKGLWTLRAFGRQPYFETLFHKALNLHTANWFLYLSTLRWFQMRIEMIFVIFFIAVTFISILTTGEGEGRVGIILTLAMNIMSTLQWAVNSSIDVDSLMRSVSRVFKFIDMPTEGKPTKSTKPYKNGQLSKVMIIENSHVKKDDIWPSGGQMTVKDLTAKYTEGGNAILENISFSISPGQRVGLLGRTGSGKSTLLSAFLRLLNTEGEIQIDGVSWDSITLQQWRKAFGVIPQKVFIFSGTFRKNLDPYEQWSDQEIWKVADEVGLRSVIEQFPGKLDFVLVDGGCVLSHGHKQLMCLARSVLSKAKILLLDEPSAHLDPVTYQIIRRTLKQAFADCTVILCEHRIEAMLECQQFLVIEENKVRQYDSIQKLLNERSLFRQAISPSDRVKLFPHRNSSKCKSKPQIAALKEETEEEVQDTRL
In short: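 Membrane potential dye (20 μM methyl oxonol, with 30 μM CaCCinh-A01 and 30 μM Chicago Sky Blue) loaded 25 min at room temperature into ROCK-inhibitor-seeded human enteroid cells. Chloride-free stimulation buffer triggered transport, followed by 15 min fluorescence. % Activity relative to 3 μM/3 μM/300 nM triple-combination control.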

[3] = target: T1, CFTR-mediated chloride transport in human intestinal epithelial enteroid cells; assay: Membrane potential dye, Enteroid Assay B; format: cell-based; settings: for EC50: read-out: Ent. B EC50
Method: Base medium (ADF+++) consisted of Advanced DMEM/Ham's F12, 2 mM Glutamax, 10 mM HEPES, […] penicillin/streptomycin.
Bath 1 Buffer consisted of 1 mM MgCl2, 160 mM NaCl, 4.5 mM KCl, 10 mM HEPES, 10 mM Glucose, 2 mM CaCl2.
Chloride Free Buffer consisted of 1 mM Magnesium Gluconate, 2 mM Calcium Gluconate, 4.5 mM Potassium Gluconate, 160 mM Sodium Gluconate, 10 mM HEPES, 10 mM Glucose.
Bath1 Dye Solution consisted of Bath 1 Buffer, 0.04% Pluronic F127, 20 μM Methyl Oxonol, 30 μM CaCCinh-A01, 30 μM Chicago Sky Blue.
Chloride Free Dye Solution consisted of Chloride Free Buffer, 0.04% Pluronic F127, 20 μM Methyl Oxonol, 30 μM CaCCinh-A01, 30 μM Chicago Sky Blue.
3. Enteroid Cell Harvesting and Seeding
Cells were recovered in cell recovery solution, collected by centrifugation at 650 rpm for 5 min at 4° C., resuspended in TryPLE and incubated for 5 min at 37° C. Cells were then collected by centrifugation at 650 rpm for 5 min at 4° C. and resuspended in IEMM containing 10 μM ROCK inhibitor (RI).
5. Membrane Potential Dye, Enteroid Assay B
Briefly, cells were washed 5 times in Bath 1 Buffer. Bath 1 Dye Solution was added and the cells were incubated for 25 min at room temperature. Following dye incubation, cells were washed 3 times in Chloride Free Dye Solution. Chloride transport was initiated by addition of Chloride Free Dye Stimulation Solution and the fluorescence signal was read for 15 min.

[4] = enteroid cells incubated with test compound 18-24 hours, acute 10 μM forskolin and 300 nM N-[2,4-bis(1,1-dimethylethyl)-5-hydroxyphenyl]-1,4-dihydro-4-oxoquinoline-3-carboxamide
[5] = percentage of chloride transport of triple combination control (3 μM N-[(6-amino-2-pyridyl)sulfonyl]-6-(3-fluoro-5-isobutoxy-phenyl)-2-[(4S)-2,2,4-trimethylpyrrolidin-1-yl]pyridine-3-carboxamide based)
[6] = percentage of chloride transport of triple combination control (1 μM (14S)-8-[3-(2-{Dispiro[2.0.2.1]heptan-7-yl}ethoxy)-1H-pyrazol-1-yl]-... trione based)

Ent. A Max Activity (%) ([2]; Enteroid Assay A)	EC50 ([2]; Enteroid Assay A) [µM]	Ent. B Max Activity (%) ([3]; Enteroid Assay B)	EC50 ([3]; Enteroid Assay B) [µM]	EC50 [2, 4] [µM]	EC50 [3, 4] [µM]	Ent. B Max Activity (%) [3, 6]	Compound	ring closure, yield after HPLC [1] [%]	Ent. A Max Activity (%) [2, 5]
–	–	–	–	–	–	–	Cc1cccc(C)c1-c1cc2nc(n1)NS(=O)(=O)c1cccc(c1)C(=O)N1CC3CCCN(C)C3C(C1)O2 (stereo not drawn)	19	–
+++ (+++ is >600%)	< 1	+++ (+++ is >600%)	< 1	–	–	–	Cc1cccc(C)c1-c1cc2nc(n1)NS(=O)(=O)c1cccc(c1)C(=O)N1Cc3cc(C(C)(C)C)ccc3C(C1)O2 (single isomer, unassigned) [Compound 183, 20-tert-butyl-12-(2,6-dimethylphenyl)-15-oxa-8λ^6-thia-1,9,11,25-tetraazapentacyclo[14.7.1.13,7.110,14.017,22]hexacosa-3,5,7(26),10,12,14(25),17,19,21-nonaene-2,8,8-trione]	–	–
++ (++ is 30-60%)	< 1	+++ (+++ is >600%)	< 1	–	–	–	Cc1cccc(C)c1-c1cc2nc(n1)NS(=N)(=O)c1cccc(c1)C(=O)N1CCN(CCC(C)(C)C)C[C@H](C1)O2 (single isomer, unassigned) [Compound 245, 18-(3,3-dimethylbutyl)-12-(2,6-dimethylphenyl)-8-imino-15-oxa-8λ^6-thia-1,9,11,18,22-pentaazatetracyclo[14.4.1.13,7.110,14]tricosa-3,5,7(23),10,12,14(22)-hexaene-2,8-dione]	–	–
+++ (+++ is >600%)	< 1	+++ (+++ is >600%)	< 1	–	–	–	Cc1cccc(C)c1-c1cc2nc(n1)NS(=O)(=O)c1cccc(c1)C(=O)N1Cc3cc(C(C)(C)C)ccc3C(O2)[C@H]1CC(C)(C)C (stereo in doubt) [Compound 188, (16S,24R)-20-tert-Butyl-12-(2,6-dimethylphenyl)-24-(2,2-dimethylpropyl)-15-oxa-8λ^6-thia-1,9,11,25-tetraazapentacyclo[14.7.1.13,7.110,14.017,22]hexacosa-3(26),4,6,10(25),11,13,17,19,21-nonaene-2,8,8-trione]	–	–
–	–	–	–	< 1	< 1	+++ (+++ is >60%)	Cc1cccc(C)c1-c1cc2nc(n1)NS(=O)(=O)c1cccc(c1)C(=O)N1Cc3ccccc3[C@H](C1)O2 (stereo in doubt) [Compound 319]	–	+++ (+++ is >60%)
–	–	–	–	< 1	< 1	+++ (+++ is >60%)	Cc1cccc(C)c1-c1cc2nc(n1)NS(=O)(=O)c1cccc(c1)C(=O)N1CCN(CCC(C)(C)C)C[C@H](C1)O2 [Compound 1, (16R)-18-(3,3-Dimethylbutyl)-12-(2,6-dimethylphenyl)-15-oxa-8λ^6-thia-1,9,11,18,22-pentaazatetracyclo[14.4.1.13,7.110,14]tricosa-3,5,7(23),10,12,14(22)-hexaene-2,8,8-trione]	–	+++ (+++ is >60%)
–	–	+++ (+++ is >600%)	< 1	–	–	–	Cc1cccc(C)c1-c1cc2nc(n1)NS(=O)(=O)c1cccc(c1)C(=O)N1CCN(C3CC4(CCCC4)C3)[C@H](CC(C)C)[C@H](C1)O2 [Compound 119, (16S,17R)-12-(2,6-dimethylphenyl)-17-(2-methylpropyl)-18-{spiro[3.4]octan-2-yl}-15-oxa-8λ^6-thia-1,9,11,18,22-pentaazatetracyclo[14.4.1.13,7.110,14]tricosa-3(23),4,6,10(22),11,13-hexaene-2,8,8-trione]	–	–
–	–	+++ (+++ is >600%)	< 1	–	–	–	Cc1cccc(C)c1-c1cc2nc(n1)NS(=O)(=O)c1cccc(c1)C(=O)N1CCN(C3CC4(CCCCC4)C3)[C@H](CC(C)C)[C@H](C1)O2 [Compound 120, (16S,17R)-12-(2,6-dimethylphenyl)-17-(2-methylpropyl)-18-{spiro[3.5]nonan-2-yl}-15-oxa-8λ^6-thia-1,9,11,18,22-pentaazatetracyclo[14.4.1.13,7.110,14]tricosa-3(23),4,6,10(22),11,13-hexaene-2,8,8-trione]	–	–
–	–	+++ (+++ is >600%)	< 1	–	–	–	Cc1cccc(C)c1-c1cc2nc(n1)NS(=O)(=O)c1cccc(c1)C(=O)N1CCN(C)[C@H](CC(C)C)[C@H](C1)O2 [Compound 121, (16S,17R)-12-(2,6-Dimethylphenyl)-18-methyl-17-(2-methylpropyl)-15-oxa-8λ^6-thia-1,9,11,18,22-pentaazatetracyclo[14.4.1.13,7.110,14]tricosa-3(23),4,6,10(22),11,13-hexaene-2,8,8-trione]	–	–
–	–	+++ (+++ is >600%)	< 1	–	–	–	Cc1cccc(C)c1-c1cc2nc(n1)NS(=O)(=O)c1cccc(c1)C(=O)N1CCN(C(=O)CC(C)(C)C)[C@H](CC(C)C)[C@H](C1)O2 [Compound 122, (16S,17R)-18-(3,3-Dimethylbutanoyl)-12-(2,6-dimethylphenyl)-17-(2-methylpropyl)-15-oxa-8λ^6-thia-1,9,11,18,22-pentaazatetracyclo[14.4.1.13,7.110,14]tricosa-3(23),4,6,10(22),11,13-hexaene-2,8,8-trione]	–	–
+++ (+++ is >600%)	1 to 3	+++ (+++ is >600%)	1 to 3	–	–	–	Cc1cccc(C)c1-c1cc2nc(n1)NS(=N)(=O)c1cccc(c1)C(=O)N1CCN(C(=O)OC(C)(C)C)CC(C1)O2 (stereo not drawn) [Compound 239, tert-Butyl 12-(2,6-dimethylphenyl)-8-imino-2,8-dioxo-15-oxa-8λ^6-thia-1,9,11,18,22-pentaazatetracyclo[14.4.1.13,7.110,14]tricosa-3,5,7(23),10,12,14(22)-hexaene-18-carboxylate]	–	–
+++ (+++ is >600%)	< 1	+++ (+++ is >600%)	< 1	–	–	–	Cc1cccc(C)c1-c1cc2nc(n1)NS(=N)(=O)c1cccc(c1)C(=O)N1CCN(CCC(C)(C)C)CC(C1)O2 (stereo not drawn) [Compound 243, 18-(3,3-Dimethylbutyl)-12-(2,6-dimethylphenyl)-8-imino-15-oxa-8λ^6-thia-1,9,11,18,22-pentaazatetracyclo[14.4.1.13,7.110,14]tricosa-3,5,7(23),10,12,14(22)-hexaene-2,8-dione]	–	–
++ (++ is 30-60%)	1 to 3	+++ (+++ is >600%)	< 1	–	–	–	Cc1cccc(C)c1-c1cc2nc(n1)NS(=N)(=O)c1cccc(c1)C(=O)N1CCN(Cc3ccccc3)CC(C1)O2 (stereo not drawn) [Compound 248]	–	–
–	–	–	–	< 1	< 1	+++ (+++ is >60%)	Cc1cccc(C)c1-c1cc2nc(n1)NS(=O)(=O)c1cccc(c1)C(=O)N1CCN(CCC(C)(C)C)C[C@@H]1CO2 [Compound 298]	–	+++ (+++ is >60%)
–	–	+++ (+++ is >600%)	< 1	–	–	–	Cc1cccc(C)c1-c1cc2nc(n1)NS(=O)(=O)c1cccc(c1)C(=O)N1CCc3cc(C(C)(C)C)ccc3[C@@H](O2)[C@H]1CC(C)C [Compound 329]	–	–
+++ (+++ is >600%)	< 1	+++ (+++ is >600%)	< 1	–	–	–	Cc1cccc(C)c1-c1cc2nc(n1)NS(=O)(=O)c1cncc(c1)C(=O)N1Cc3cc(C(C)(C)C)ccc3[C@H](O2)[C@H]1CC(C)C [Compound 331]	–	–
